According to patent publication US8907107B2 (Hae Therapeutics Limited, priority 2009, dated 2014):
Marks after values point to notes of the source that are not given here.

Assays:
[1] = Fluorescence emission spectra and quantum yield; assay type: physicochemical; conditions: for λmax emiss.: 5 × 10^−7 M, excitation 640 nm, slit widths 5 nm
[2] = UV-visible absorption spectra; assay type: physicochemical; conditions: for λabs: longest-wavelength band, from compound data
MDA-MB-231 cells [3] = test: Confocal imaging of cell internalization and intracellular on/off switching of 8a; assay type: cell-based
From the text: The difference in averaged whole cell red fluorescence taken from off-cells to on-cells was six-fold (FIG. 7).

physchem = test: physchem
From the text: A trace pH=6.0, B trace pH=9.0. Excitation at 640 nm, slit widths 10 nm, 5×10^−7 M in water/CrEL.
FIG. 6. […] Excitation at 640 nm, slit widths 20 nm, 5×10^−7 M in water/CrEL. INaCl=150 mmol/L.

MDA-MB-231 cells [4] = test: Cellular uptake of 16 and 17, CLSM imaging; assay type: cell-based; conditions: 5 μM; for cellular uptake: 1 hour incubation, DMEM; for subcellular localisation: 1 hour, 3-D reconstruction, DAPI co-staining
Protocol: These spectroscopic properties correlate perfectly to the optical requirements of commercially available confocal laser scanning microscopy (CLSM) instruments and small animal optical imaging instruments. Cellular uptake of DMEM solutions of 16 and 17 were utilised to illustrate their potential for in vitro imaging. Compounds 16 and 17 were incubated with MDA-MB-231 cells for 1 hour at 5 μM concentration and the excess dye was removed by washing with PBS before visualisation.
(§1) MDA-MB-231 cells were seeded into a 8 well chambered microscopy slide and they were grown overnight in DMEM media at 37° C. in the presence of 5% CO2. The media was then removed and 16 and 17 (5 μM) was added, followed by an incubation period of 1 hour in the dark. Cells were then washed with PBS to remove excess compound. Prior to visualization, cells were fixed in 3.7% formaldehyde solution, co-stained with DAPI and a coverslip was mounted onto the microscopy slide. In a similar way, E. coli cells were incubated with 21 (4 μM) in the dark for 10 minutes. The bacterial cells were washed with PBS and An aliquot of this solution was suspended onto a microscopy slide and allowed to dry. Before imaging, a coverslip was mounted onto the microscopy slide. Images were obtained using an LSM510 META confocal laser scanning microscope equipped with 63× numerical aperture 1.4 objective. DAPI was excited at 364 nm and detected with a band-pass filter 385-470 nm, whilst 16, 17 and 21 were excited at 633 nm and their fluorescence was detected through a 650 nm long-pass filter.

E. coli cells = test: Bacterial cell uptake of 21, confocal imaging; assay type: cell-based, Escherichia coli; conditions: gram-negative; 4 μM, 10 minutes
Protocol: as §1
(§2) It was envisaged that the bis-cationic nature of sensitizer 21 would be optimal for uptake into prokaryotic cells thereby broadening their utility. […] Confocal imaging confirmed the binding of 21 to both gram-positive and negative bacterial cells (FIGS. 28a, 28b).

S. aureus cells = test: Bacterial cell uptake of 21, confocal imaging; assay type: cell-based, Staphylococcus aureus; conditions: gram-positive; 4 μM, 10 minutes
Protocol: as §1, §2

[5] = 730 nm, excitation 640 nm, 5×10^−7 M in water/CrEL

Question: Which “fluorescence quantum yield Φf” value ([1]; CHCl3, 1 as standard) does the source give for COCCOCCOCCOc1ccc(-c2cc(-c3ccccc3)c3n2[B-](F)(F)[N+]2=C(c4ccc(OCCNC(=O)OC(C)(C)C)cc4)C=C(c4ccccc4)C2=N3)cc1 [Compound 9] here?
Answer: 0.36

Question: And the λemiss ([1]; CHCl3, from compound data)?
Answer: 717 nm

Question: What about the Φf ([1]; ethanol, 1 used as standard) of the same compound?
Answer: 0.23

Question: And the λmax emiss. ([1]; ethanol)?
Answer: 714 nm

Question: What about the “ε×10^−3” value ([2]; CHCl3, at 689 nm) of the same compound?
Answer: 87.1

Question: And the λabs ([2]; CHCl3)?
Answer: 689 nm

Question: Which results are given for CCN(CC)Cc1ccc(C2=CC(c3ccc(OC)cc3)=[N+]3C2=Nc2c(-c4ccc(CN(CC)CC)cc4)cc(-c4ccc(OC)cc4)n2[B-]3(F)F)cc1 [Compound 20]?
Answer: ε ([2]; CHCl3, at 691 nm): 76,000 Lmol^−1 cm^−1; λabs ([2]; CHCl3): 691 nm

Question: Which λmax abs. ([2]; CH3OH, 5 × 10^−6 M) does the source give for O=C(O)CCCn1cc(COc2ccc(C3=NC(=Nc4[nH]c(-c5ccc(O)cc5)cc4-c4ccccc4)C(c4ccccc4)=C3)cc2)nn1 [Compound 8b, 4-[4-(4-[5-[5-(4-Hydroxyphenyl)-3-phenyl-1H-pyrrol-2-ylimino]-4-phenyl-5H-pyrrol-2-yl]-phenoxymethyl)-[1,2,3]triazol-1-yl]butyric acid] here?
Answer: 687 nm

Question: For OC[C@H]1O[C@@H](n2cc(COc3ccc(-c4cc(-c5ccccc5)c5n4[B-](F)(F)[N+]4=C(c6ccc(O)cc6)C=C(c6ccccc6)C4=N5)cc3)nn2)[C@H](O)[C@@H](O)[C@H]1O [Compound 8a], which λmax abs. ([2]; CH3OH, 5 × 10^−6 M) is on record?
Answer: 687 nm

Question: What about the “intracellular emission after addition of basic buffer” value (MDA-MB-231 cells [3]; aqueous carbonate buffer pH 8.0) of the same compound?
Answer: almost complete quenching

Question: What about the “subcellular localisation of red emission” value (MDA-MB-231 cells [3]; incubation 1 h, DAPI co-staining) of the same compound?
Answer: localised to the cytosol

Question: And the “intracellular emission after addition of acidic buffer” value (MDA-MB-231 cells [3]; pH 6.6 buffer)?
Answer: re-established

Question: What about the “difference in averaged whole cell red fluorescence from off-cells to on-cells” value (MDA-MB-231 cells [3]; pH 8.0 versus pH 6.6 buffer) of the same compound?
Answer: six-fold

Question: And the pKa (physchem)?
Answer: 6.9

Question: What about the “fluorescence intensity difference between pH 6.6 and 8” value (physchem; [5]) of the same compound?
Answer: 6 fold

Question: And the “fluorescence intensity difference from pH 6.1 to 7.2” value (physchem; [5])?
Answer: greater than 2 fold

Question: What does the source list for O=S(=O)(O)CCCOc1ccc(C2=[N+]3C(=Nc4c(-c5ccccc5)cc(-c5ccc(OCCCS(=O)(=O)O)cc5)n4[B-]3(F)F)C(c3ccccc3)=C2)cc1 [Compound 17]?
Answer: cellular uptake (MDA-MB-231 cells [4]): efficiently taken up by cells; subcellular localisation (MDA-MB-231 cells [4]): primarily to the cytoplasm; Φf ([1]; CHCl3): 0.31; λmax emiss. ([1]; CHCl3): 726 nm; λmax emiss. ([1]; DMEM): 728 nm; λmax emiss. ([1]; PBS/BSA (4×10^−4 M BSA)): 718 nm; λmax abs. ([2]; CHCl3, 1 × 10^−6 M): 694 nm; λmax abs. ([2]; CHCl3, 1 × 10^−6 M, as tetra-butylammonium salt): 694^e nm; λmax abs. ([2]; DMEM, 1 × 10^−6 M): 694 nm; λmax abs. ([2]; MeOH, 1 × 10^−6 M): 687 nm; λmax abs. ([2]; PBS/BSA, 1 × 10^−6 M): 692 nm

Question: Which λmax abs. ([2]; CH3OH, 5 × 10^−6 M) does the source give for CC(C)(C)OC(=O)NCCn1cc(COc2ccc(C3=NC(=Nc4[nH]c(-c5ccc(O)cc5)cc4-c4ccccc4)C(c4ccccc4)=C3)cc2)nn1 [Compound 8c, {2-[4-(4-{5-[5-(4-Hydroxyphenyl)-3-phenyl-1H-pyrrol-2-ylimino]-4-phenyl-5H-pyrrol-2-yl}-phenoxymethyl)-[1,2,3]triazol-1-yl]ethyl}carbamic acid t-butyl ester] here?
Answer: 687 nm

Question: With O=C(O)COc1ccc(C2=[N+]3C(=Nc4c(-c5ccccc5)cc(-c5ccc(OCC(=O)O)cc5)n4[B-]3(F)F)C(c3ccccc3)=C2)cc1 [Compound 16] as the compound, how does the cellular uptake (MDA-MB-231 cells [4]) read?
Answer: efficiently taken up by cells

Question: What about the subcellular localisation (MDA-MB-231 cells [4]) of the same compound?
Answer: primarily to the cytoplasm

Question: What about the Φf ([1]; CHCl3) of the same compound?
Answer: 0.30

Question: And the λmax emiss. ([1]; DMEM)?
Answer: 722 nm

Question: And the λmax emiss. ([1]; MeOH)?
Answer: 715 nm

Question: What about the λmax emiss. ([1]; PBS/BSA (4×10^−4 M BSA)) of the same compound?
Answer: 718 nm

Question: And the λmax abs. ([2]; CHCl3, 1 × 10^−6 M)?
Answer: 681 nm

Question: And the λmax abs. ([2]; DMEM, 1 × 10^−6 M)?
Answer: 694 nm

Question: What about the λmax abs. ([2]; MeOH, 1 × 10^−6 M) of the same compound?
Answer: 681 nm

Question: What about the λmax abs. ([2]; PBS/BSA, 1 × 10^−6 M) of the same compound?
Answer: 692 nm

Question: With CC[N+](C)(CC)Cc1ccc(C2=CC(c3ccc(OC)cc3)=[N+]3C2=Nc2c(-c4ccc(C[N+](C)(CC)CC)cc4)cc(-c4ccc(OC)cc4)n2[B-]3(F)F)cc1.[I-].[I-] [Compound 21] as the compound, how does the Φf ([1]; CHCl3) read?
Answer: 0.22

Question: What about the λmax emiss. ([1]; CHCl3) of the same compound?
Answer: 735 nm

Question: What about the λmax emiss. ([1]; DMEM) of the same compound?
Answer: 737 nm

Question: What about the λmax emiss. ([1]; MeOH) of the same compound?
Answer: 732 nm

Question: And the λmax emiss. ([1]; PBS/BSA (4×10^−4 M BSA))?
Answer: 730 nm

Question: And the λmax abs. ([2]; CHCl3, 1 × 10^−6 M)?
Answer: 702 nm

Question: What about the λmax abs. ([2]; DMEM, 1 × 10^−6 M) of the same compound?
Answer: 709 nm

Question: And the λmax abs. ([2]; MeOH, 1 × 10^−6 M)?
Answer: 702 nm

Question: And the λmax abs. ([2]; PBS/BSA, 1 × 10^−6 M)?
Answer: 706 nm

Question: What about the “cellular uptake / binding” value (E. coli cells) of the same compound?
Answer: sufficient for cellular uptake

Question: What about the “cellular uptake / binding” value (S. aureus cells) of the same compound?
Answer: sufficient for cellular uptake
